Results on five compounds are retold here after article PMC5622025, “Synthesis and biological evaluation of tricyclic matrinic derivatives as a class of novel anti-HCV agents” (Chemistry Central Journal, 2017).

Structures are written as SMILES. Counter-ions that a name gives are not always drawn. Like-named read-outs stand apart in the source and are kept apart here.

The subject of series [1] is HCV. As to the kind of experiment: Anti-HCV effect in vitro, intracellular HCV RNA by real-time RT-PCR in infected Huh7.5 cells. It is filed as cell-based, hepatitis C virus. As to conditions: for EC50: read-out: EC50 (concentration required to inhibit HCV growth by 50%); for SI (ratio of CC50 to EC50): Huh7.5 cells. On the procedure:
(§1) All the target compounds were evaluated for their anti-HCV activities (EC50) and cytotoxicities (CC50) in human Huh7.5 cells using specific real-time RT-PCR assay, as described earlier. As an important indicator, the selectivity index (SI) was calculated as a ratio of CC50 to EC50. Anti-HCV ability of a given compound was estimated by combining its EC50 with SI values.
(§2) Human liver cell line Huh7.5 cells (kindly provided by Vertex Pharmaceuticals, Inc., Boston, MA) were cultured in Dulbecco’s modified eagle medium (DMEM) supplemented with 10% inactivated fetal bovine serum and 1% penicillin–streptomycin (invitrogen). Cells were digested with 0.05% trypsin-ethylene diamine tetraacetic acid (EDTA) and split twice a week.
Huh7.5 cells were seeded into 96-well or 6-well plates (Costar) at a density of 3 × 10^4 cells cm^−2. After 24 h incubation, the cells were infected with HCV viral stock (45 IU cell^−1) and simultaneously treated with the test compounds at various concentrations or solvent as control. The culture medium was removed after 72 h inoculation, the intracellular total RNA (in 96-well plates) was extracted with RNeasy Mini Kit (Qiagen), and total intracellular proteins (in 6-well plates) were extracted with Cyto-Buster Protein Extraction Reagent added with 1 mM protease inhibitor cocktail. The intracellular HCV RNA was quantified with a real time one-step reverse-transcription polymerase chain reaction (RT-PCR).
(In qPCR the cycle at which signal appears reflects the starting amount.)

For another series, the system named is Huh7.5 cells. In words: Cytotoxicity assay (MTT) in Huh7.5 cells. It is filed as cell-based, human. To be noted: Huh7.5 cells, 72 h, MTT; read-out: CC50 (cytotoxic concentration required to inhibit Huh7.5 cell growth by 50%). The protocol:
as §1, §2
(§3) Huh7.5 cells were seeded into 96-well plates (Costar) at a density of 3 × 10^4 cells cm^−2. After 24 h incubation, fresh culture medium containing test compounds at various concentrations were added. 72 h later, cytotoxicity was evaluated with 3-(4,5-dimethylthiazol-2-yl)-2,5-diphenyltetrazolium bromide (MTT).

The nature of series [2]: PK study after single oral dosing. The class given is in vivo, SD rats. As to conditions: rats, single oral dosing of 25 mg kg^−1, n = 3.
A further series has as its system Kunming mice. In words: Acute toxicity test, single oral dosing, 7 days monitoring. It is filed as in vivo. On the procedure:
Each compound was given orally in a single-dosing experiment at 250, 500, 750 or 1000 mg kg^−1, respectively. The mice were closely monitored for 7 days.
Female Kunming mice with weight of 20.0 ± 1.0 g were fed with regular rodent chow and housed in an air conditioned room. The mice were randomly divided into different groups with six mice each. Each compound was given orally in a single-dosing experiment at 0, 250, 500, 750 or 1000 mg kg^−1 (ddH2O as control), respectively. The mice were closely monitored for 7 days. Body weight as well as survival was monitored.

The nature of series [3]: Cytotoxicity assay (MTT) in Huh7.5 cells. As to conditions: human; Huh7.5 cells, 72 h, MTT; read-out: CC50 (cytotoxic concentration required to inhibit Huh7.5 cell growth by 50%). It is filed as cell-based, human. On the procedure: as §1, §2, §3
The subject of series [4] is HCV. The arrangement: method as in PMID 23516533, PMID 20593456. To be noted: earlier studies; cited from earlier work.
Setting [5] is: HCV-infected Huh7.5 cells, 72 h, real-time RT-PCR.

`O=[N+]([O-])c1cccc(CN2C[C@@H]3CCCN4CCC[C@@H]([C@H]34)[C@H]2/C=C\CCO)c1` (as salt: hydrochloride) [compound 20, (Z)-12N-(3-nitrobenzyl)-Δ^βγ-matrinic crotonol dihydrochloride] registered a melting point of 143 to 145 °C.
For `COc1ccc(CN2CC3CCCN4CCCC(C2CCCCO)C34)cc1.Cl.Cl` (stereo not drawn) [7a, 12N-(4-Methoxybenzyl)matrinol dihydrochloride], the EC50 with HCV [1] (setting [5]) was 2.81 ± 0.82 µM. In addition, the CC50 in the series with Huh7.5 cells came to 383 ± 30.2 µM. Moreover, in series [2], the “AUC 0–t” value amounted to 1.55 µM·h, the “AUC 0–∞” value came out at 1.58 µM·h, the peak level (Cmax) was 620 nM and the MRT was found to be 3.55 h. For the same compound, in series [2], the Tmax was 0.42 h and the t1/2 turned out to be 4.69 h. Further, in the series with Kunming mice, the 50% lethal dose (LD50) was 708 mg/kg.
As to `Cc1ccc(CN2C[C@@H]3CCCN4CCC[C@@H]([C@H]34)[C@H]2CCCCO)cc1.Cl.Cl` [7b, 12N-(4-Methylbenzyl)matrinol dihydrochloride], the EC50 in the series with HCV [1] (setting [5]) is < 2.06 µM. Also, the CC50 in the series on Huh7.5 cells worked out at 252 ± 3.04 µM. Also, in series [2], the “AUC 0–t” value is 2.32 µM·h, the “AUC 0–∞” value was found to be 2.36 µM·h, the Cmax turned out to be 790 nM and the MRT worked out at 4.47 h. Also, in series [2], the Tmax came to 1.00 h and the t1/2 was 3.39 h. Moreover, in the series with Kunming mice, the LD50 is 392 mg/kg.
On to `COc1ccc(CN2C[C@@H]3CCCN4CCC[C@@H]([C@H]34)[C@H]2CCCC(=O)O)cc1` [compound 1, 12N-4-methoxylbenzyl matrinic acid], for which the EC50 in the series with HCV [1] (Hepatitis C virus, HCV-infected Huh7.5 cells, 72 h, real-time RT-PCR) amounted to 43.8 ± 3.81 µM. For the same compound, in the series with HCV [1], the “SI (ratio of CC50 to EC50)” value is on record as > 22.8. Also, the CC50 at 72 h in series [3] is > 1000 µM. Moreover, the “SI (anti-HCV)” value in the series with HCV [4] was “over 22”.
Take `CCCC[C@@H]1[C@H]2CCCN3CCC[C@@H](CN1Cc1ccc(OC)cc1)[C@@H]23` [compound 9, 12N-4-methoxybenzyl matrinic butane]: the melting point was in the range of 73 to 74 °C. In addition, the EC50 with HCV [1] (Hepatitis C virus, Huh7.5, 72 h) was 1.16 ± 0.25 µM. Also, the “SI (ratio of CC50 to EC50)” value in the series on HCV [1] was 36.1. Also, in series [3], the CC50 at 72 h worked out at 41.9 ± 1.1 µM.

The term melting point denotes the temperature of the solid-liquid transition. The term Cmax denotes the maximum level reached in the sampled fluid or tissue. For orientation: MRT means the average time that molecules of a dose stay in the body. The Tmax is the time from dosing to the highest level. Usually LD50 stands for the dose at which mortality reaches 50%.
